Patent US12281114B2, “NK3 modulators and uses thereof” (Kallyope, Inc., priority 2023, dated 2025)

Target: T1, human NK3 (Homo sapiens, UniProt P29371)
T1 sequence (P29371 1-465): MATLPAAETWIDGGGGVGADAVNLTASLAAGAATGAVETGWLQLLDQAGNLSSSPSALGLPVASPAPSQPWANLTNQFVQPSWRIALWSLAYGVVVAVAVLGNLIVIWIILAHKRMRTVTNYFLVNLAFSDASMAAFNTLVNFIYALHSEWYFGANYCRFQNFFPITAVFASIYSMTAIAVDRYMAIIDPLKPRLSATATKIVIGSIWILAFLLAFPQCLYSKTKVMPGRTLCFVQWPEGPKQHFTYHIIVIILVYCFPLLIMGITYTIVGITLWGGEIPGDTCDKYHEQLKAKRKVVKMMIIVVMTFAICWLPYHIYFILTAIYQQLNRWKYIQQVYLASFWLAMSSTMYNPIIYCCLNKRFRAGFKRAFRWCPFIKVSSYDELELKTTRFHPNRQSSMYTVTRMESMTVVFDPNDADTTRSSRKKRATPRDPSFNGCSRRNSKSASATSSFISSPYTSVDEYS
Assay: FLIPR calcium assay in antagonist mode (NKB EC70 challenge)
Assay type: cell-based
Settings: stable cell line expressing human recombinant NK3; antagonist mode vs EC70 of NKB agonist
Protocol: Stable Cell Lines: A human recombinant NK3 Tachykinin Receptor stable cell line was purchased from GenScript (Genscript, Cat. #M00201; GenBank Accession Number NM 001059). The cell line was cultured according to manufacturer instructions, using 100 μg/mL Hygromycin B (Invitrogen, Cat. #D2650) for selective pressure. Cells were then collected using 0.05% Trypsin-EDTA (GIBCO, Cat. #25300) and frozen in a freezing media containing 90% FBS (Gibco, Cat. #10099-141) and 10% DMSO (Sigma, Cat. #D2650) at a density of 30×10^6 cells/mL. This bank of assay-ready frozen cells was later used in FLIPR assays to evaluate the potency and efficacy of NK3 antagonist test compounds.
FLIPR Calcium Assay: The FLIPR assay, used to measure changes in intracellular calcium levels, was performed in a 384-well plate format using the FLIPR Calcium 6 assay kit (Molecular Devices, Cat. #R8190). Assay-ready frozen cells expressing human NK3 (Genscript, Cat. #M00201) were thawed, washed, trypsinized, counted using a ViCell, and plated in cell growth media without Hygromycin at a density of […] (40 μL/well).
Calculation of NKB EC70: An EC70 concentration of NKB needed to be determined for competition against test antagonists prior to the compound screen. NKB agonist (Phoenix Pharmaceuticals, Cat. #046-26) was diluted in DMSO at 1800 nM (6-fold the final concentration) and serially diluted to generate a 13-point dose response curve (3-fold serial dilution) using an ECHO. 20 μL of 1× stimulation buffer was added using the BRAVO. 10 μL of DMSO was added while on the FLIPR (described as the first addition), then the RFU signal was measured for 10 minutes. The NKB titration was added to the plate, then the RFU signal was measured for 10 minutes (described as the second addition) on the FLIPR. The EC70 concentration was determined by using a four-parameter fit on GraphPad Prism prior to performing the compound screen.
FLIPR Screen in Antagonist Mode: Test compounds were prepared at 60 μM (6-fold the final concentration) and spotted in 370 nL using the Janus and ECHO. 20 μL of assay buffer was added using the BRAVO. Calcium-sensitive dye was reconstituted in loading buffer (Molecular Devices, Cat. #R8190). Media was removed from the cell plate using a Bluecat Cell Washer, and 40 μL of dye was added to the cell plate using the Apricot. The plate was incubated for 2 hours at 37° C., 5% CO2, then transferred to the FLIPR instrument. 10 μL of compound was added on the FLIPR (described as the first addition), then the RFU signal was measured for 10 minutes. EC70 of NKB agonist was added to the entire plate (described as the second addition), and the RFU signal was measured for 10 minutes on the FLIPR. RFU (relative fluorescence units) signals for first baseline, first peak, second baseline, and second peak were measured using the FLIPR. RFU signal (second peak minus second baseline) for positive (Max, at 10 μM antagonist) and negative (Min, at 0 μM antagonist) controls were used to normalize data and generate values for % Activity. IC50 and efficacy values were determined using a standard curve fitting equation on Dotmatics.

Structure (SMILES)	IC50
Cc1nn(C)cc1-c1ccccc1-c1nc2cc(C(=O)NC[C@@H](C)N3CCNCC3)ccn2c1Cl [Compound 797]	4.63 nM
Cc1nn(C)cc1-c1ccccc1-c1nc2cc(C(=O)N[C@@H]3C[C@H]3CO)ccn2c1Cl [Compound 619]	1.24 nM
Cn1cc(-c2cc(F)cc(F)c2-c2nc3cc(C(=O)N[C@H]4C[C@@](O)(CO)C4)ccn3c2Cl)c(F)n1 [Compound 923, 3-chloro-2-(2,4-difluoro-6-(3-fluoro-1-methyl-1H-pyrazol-4-yl)phenyl)-N-((1r,3r)-3-hydroxy-3-(hydroxymethyl)cyclobutyl)imidazo[1,2-a]pyridine-7-carboxamide]	2.36 nM
Cc1nn(C)cc1-c1ccccc1-c1nc2cc(C(=O)N[C@H]3C[C@H](CO)C3)ccn2c1Cl [Compound 641]	1.04 nM
Cn1cc(-c2cccc(F)c2-c2nc3cc(C(=O)N[C@H]4C[C@](C)(O)C4)ccn3c2C#N)c(F)n1 [Compound 925, 3-cyano-2-(2-fluoro-6-(3-fluoro-1-methyl-1H-pyrazol-4-yl)phenyl)-N-((1r,3r)-3-hydroxy-3-methylcyclobutyl)imidazo[1,2-a]pyridine-7-carboxamide]	1.85 nM
Cn1cc(-c2ccccc2-c2nc3cc(C(=O)N4C[C@@H]5C[C@H]4C(=O)N5)ccn3c2Cl)c(C#N)n1 [Compound 795]	12.5 nM
CC(=O)NCCNC(=O)c1ccn2c(Cl)c(-c3ccccc3-c3cn(C)nc3C)nc2c1 [Compound 451]	7.13 nM
Cn1cc(-c2cccc(F)c2-c2nc3cc(C(=O)N[C@H]4C[C@@](O)(CO)C4)ccn3c2Cl)c(F)n1 [Compound 841]	1.25 nM
COC12CC(NC(=O)c3ccn4c(Cl)c(-c5c(F)cc(F)cc5-c5c[nH]nc5F)nc4c3)(C1)C2 [Compound 848]	2 nM
Cn1cc(-c2cccc(F)c2-c2nc3cc(C(=O)N4CC5(C4)CC(C)(O)C5)ccn3c2Cl)c(F)n1 [Compound 842]	1.38 nM
Cn1cc(-c2cccc(F)c2-c2nc3cc(C(=O)N[C@H]4CC[C@](C)(O)CC4)ccn3c2C#N)c(F)n1 [Compound 930, 3-cyano-2-(2-fluoro-6-(3-fluoro-1-methyl-1H-pyrazol-4-yl)phenyl)-N-((1r,4r)-4-hydroxy-4-methylcyclohexyl)imidazo[1,2-a]pyridine-7-carboxamide]	3 nM
Cc1nn(C)cc1-c1ccccc1-c1nc2cc(C(=O)N3CCNCC3)ccn2c1C [Compound 271]	20.3 nM
Cc1nn(C)cc1-c1ccccc1-c1nc2cc(C(=O)NCCC3(O)COC3)ccn2c1Cl [Compound 651]	9.28 nM
Cn1cc(-c2cccc(F)c2-c2nc3cc(C(=O)NC4CC5(COC5)C4)ccn3c2Cl)c(F)n1 [Compound 840]	0.58 nM
Cc1n[nH]cc1-c1ccccc1-c1nc2cc(C(=O)N[C@@H]3CO[C@H]4[C@@H]3OC[C@H]4O)ccn2c1Cl [Compound 475]	5.74 nM
Cc1nn(C)cc1-c1ccccc1-c1nc2cc(C(=O)N[C@@H]3CO[C@H]4[C@@H]3OC[C@H]4O)ccn2c1C#N [Compound 431]	4.03 nM
Cn1cc(-c2cccc(F)c2-c2nc3cc(C(=O)NC4CC5(CC(O)C5)C4)ccn3c2Cl)c(F)n1 (centres unmarked) [Compound 853]	0.97 nM
Cc1nn(C)cc1-c1cccc(F)c1-c1nc2cc(C(=O)N[C@H]3CO[C@H]4[C@@H]3OC[C@@H]4O)ccn2c1Cl [Compound 773]	2.63 nM
Cn1cc(-c2ccccc2-c2nc3cc(C(=O)NC4CC5(C4)CS(=O)(=O)C5)ccn3c2Cl)c(F)n1 [Compound 849]	0.94 nM
Cn1cc(-c2ccc(F)c(F)c2-c2nc3cc(C(=O)N[C@H]4C[C@](C)(O)C4)ccn3c2Cl)c(F)n1 [Compound 927]	2.66 nM
Cc1nn(C)cc1-c1cccc(F)c1-c1nc2cc(C(=O)N3C[C@@H]4C[C@H]3C(=O)N4)ccn2c1Cl [Compound 487]	2.21 nM
Cc1c(-c2ccccc2-c2nc3cc(C(=O)N[C@H]4C[C@](C)(C(=O)O)C4)ccn3c2C)cnn1C [Compound 312]	41.7 nM

Structure (SMILES)	IC50
Cc1nn(C)cc1-c1ccccc1-c1nc2cc(C(=O)NC[C@H]3C[C@](C)(O)C3)ccn2c1Cl [Compound 629]	1.06 nM
Cc1nn(C)cc1-c1ccccc1-c1nc2cc(C(=O)NC3CCNCC3)ccn2c1C [Compound 264]	10.7 nM
Cc1nn(C)cc1-c1ccccc1-c1nc2cc(C(=O)N[C@H]3CO[C@H]4[C@@H]3OC[C@H]4O)ccn2c1C [Compound 779]	5.82 nM
Cc1c(-c2ccccc2-c2nc3cc(C(=O)N[C@@H]4CO[C@H]5[C@@H]4OC[C@H]5O)ccn3c2Cl)cnn1C [Compound 142]	6.6 nM
Cc1c(-c2ccccc2-c2nc3cc(C(=O)N[C@@H]4CO[C@H]5[C@@H]4OC[C@H]5O)ccn3c2Cl)cnn1CC1CC1 [Compound 801]	22 nM
C[C@]1(O)C[C@H](NC(=O)c2ccn3c(Cl)c(-c4ccccc4-c4cn(C5CC5)nc4Cl)nc3c2)C1 [Compound 826]	1.4 nM
C[C@]1(O)C[C@H](NC(=O)c2ccn3c(Cl)c(-c4ccccc4-c4cn(C(F)F)nc4Cl)nc3c2)C1 [Compound 819]	6.12 nM
Cc1nn(C)cc1-c1ccncc1-c1nc2cc(C(=O)N[C@H]3C[C@](C)(O)C3)ccn2c1Cl [Compound 825]	7.72 nM
Cc1nn(C)cc1-c1ccccc1-c1nc2cc(C(=O)N[C@H]3CO[C@H]4[C@@H]3OC[C@@H]4O)ccn2c1C#N [Compound 774]	5.21 nM
Cn1cc(-c2ccccc2-c2nc3cc(C(=O)NC45CCC(O)(CC4)C5)ccn3c2Cl)c(F)n1 [Compound 855]	1.71 nM
Cc1nn(C)cc1-c1ccccc1-c1nc2cc(C(=O)NCCc3n[nH]c(=O)[nH]3)ccn2c1Cl [Compound 748]	5.58 nM
Cc1nn(C)cc1-c1ccccc1-c1nc2cc(C(=O)NC34COC(CO)(C3)C4)ccn2c1Cl [Compound 615]	2.5 nM
Cc1nn(C)cc1-c1ccccc1-c1nc2cc(C(=O)NC[C@H]3C[C@@H](O)C3(C)C)ccn2c1Cl [Compound 645]	2.02 nM
Cc1nn(C)cc1-c1ccccc1-c1nc2cc(C(=O)NCC3(O)COC3)ccn2c1Cl [Compound 650]	5.83 nM
Cc1nn(C)cc1-c1ccccc1-c1nc2cc(C(=O)NCc3cnc(N)nc3)ccn2c1Cl [Compound 761]	1.92 nM
Cc1c(-c2c(F)cc(F)cc2-c2cn(C)nc2F)nc2cc(C(=O)N[C@H]3C[C@@](C)(O)C3)ccn12 [Compound 831]	3.66 nM
CCn1cc(-c2ccccc2-c2nc3cc(C(=O)N[C@@H]4CO[C@H]5[C@@H]4OC[C@H]5O)ccn3c2Cl)c(C)n1 [Compound 476]	3.31 nM
Cn1cc(-c2cccc(F)c2-c2nc3cc(C(=O)NC45COC(CO)(C4)C5)ccn3c2Cl)c(F)n1 [Compound 838]	5.17 nM
Cc1nn(C)cc1-c1ccccc1-c1nc2cc(C(=O)NC34CC(O)(C3)C4)ccn2c1Cl [Compound 430]	2.3 nM
Cc1nn(C)cc1-c1cccc(F)c1-c1nc2cc(C(=O)N3CCNCC3)ccn2c1Cl [Compound 799]	4.7 nM
Cc1nn(C)cc1-c1ccccc1-c1nc2cc(C(=O)N3CC[C@@H](N4CCNCC4)C3)ccn2c1C (single isomer, unassigned) [Compound 480]	20.7 nM
Cc1nc(N)ccc1CNC(=O)c1ccn2c(Cl)c(-c3ccccc3-c3cn(C)nc3C)nc2c1 [Compound 759]	2.78 nM
